Test results taken from US20230265116A1, “DEGRADATION OF (EGFR) BY CONJUGATION OF EGFR INHIBITORS WITH E3 LIGASE LIGAND AND METHODS OF USE” (BEIGENE, LTD., priority 2020, published 2023).

Columns and labels:
[1] = tested on: EGFR Del19/T790M/C797S (H1975-clone #28); test: EGFR degradation HTRF assay, H1975-clone #28 DTC cells; format: cell-based; conditions: H1975 # 28 DTC cells; for DC50: EGFR degradation, IC50 (DC50) from curve fit, read-out: DC50(nM) H1975 # 28 DTC; for Dmax (%) H1975 # 28 DTC: maximum percentage of inhibition (degradation)
In short: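 Compounds (top 10 uM, 5-fold, 8 points, 0.2% DMSO) incubated 16 h at 37 °C on homozygous clones: #23 Del19/C797S, #28 Del19/T790M/C797S, exogenous EGFR only in H1975. HTRF on lysates quantified remaining EGFR relative to DMSO; four-parameter fit gave DC50 and Dmax.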

[2] = target: T1, EGFR L858R/T790M/C797S (BaF3-LTC cells) (Homo sapiens, UniProt P00533, C797S/L858R/T790M); test: EGFR degradation HTRF assay, BaF3-LTC cells; format: cell-based; conditions: BaF3-LTC cells; for DC50: EGFR degradation, IC50 (DC50) from curve fit, read-out: DC50(nM) BaF3-LTC; for Dmax: maximum percentage of inhibition (degradation), read-out: Dmax (%) BaF3-LTC
T1 construct: expressed in transfected cells; host or cells: BaF3
T1 sequence (P00533 25-1210 T790M/C797S/L858R): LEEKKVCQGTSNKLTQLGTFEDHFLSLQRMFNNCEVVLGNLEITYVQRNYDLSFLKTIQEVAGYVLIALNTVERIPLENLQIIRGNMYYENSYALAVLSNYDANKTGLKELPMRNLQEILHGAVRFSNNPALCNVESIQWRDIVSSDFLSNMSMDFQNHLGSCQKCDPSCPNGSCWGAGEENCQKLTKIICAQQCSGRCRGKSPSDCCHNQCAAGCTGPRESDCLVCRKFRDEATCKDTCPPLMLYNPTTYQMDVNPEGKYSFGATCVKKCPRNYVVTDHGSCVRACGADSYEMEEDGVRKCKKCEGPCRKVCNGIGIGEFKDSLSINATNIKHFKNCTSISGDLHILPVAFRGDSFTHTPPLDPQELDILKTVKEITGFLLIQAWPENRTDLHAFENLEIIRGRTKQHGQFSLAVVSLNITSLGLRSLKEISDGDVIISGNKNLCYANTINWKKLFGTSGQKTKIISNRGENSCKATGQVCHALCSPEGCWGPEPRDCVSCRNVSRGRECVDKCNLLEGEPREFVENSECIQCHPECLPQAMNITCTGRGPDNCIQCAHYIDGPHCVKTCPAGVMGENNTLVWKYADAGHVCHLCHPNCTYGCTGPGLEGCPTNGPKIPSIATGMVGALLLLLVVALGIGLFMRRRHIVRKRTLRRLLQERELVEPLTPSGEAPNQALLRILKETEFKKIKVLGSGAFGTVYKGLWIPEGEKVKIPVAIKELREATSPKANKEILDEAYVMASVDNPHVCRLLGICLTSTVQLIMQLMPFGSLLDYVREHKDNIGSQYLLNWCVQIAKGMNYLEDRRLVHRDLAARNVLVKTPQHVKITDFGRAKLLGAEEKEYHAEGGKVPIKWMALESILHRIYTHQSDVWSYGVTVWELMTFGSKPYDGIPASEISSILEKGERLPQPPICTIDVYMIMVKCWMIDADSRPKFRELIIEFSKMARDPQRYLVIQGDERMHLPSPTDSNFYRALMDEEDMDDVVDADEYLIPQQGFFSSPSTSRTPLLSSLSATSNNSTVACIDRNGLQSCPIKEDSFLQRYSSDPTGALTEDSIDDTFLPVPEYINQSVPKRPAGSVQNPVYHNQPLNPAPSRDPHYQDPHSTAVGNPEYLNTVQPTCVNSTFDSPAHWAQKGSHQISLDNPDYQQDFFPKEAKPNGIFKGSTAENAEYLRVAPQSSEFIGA
In short: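 Cells treated 16 h at 37 °C, 5% CO2 in medium with 0.2% DMSO; top final concentration 10 uM, 5-fold dilution, 8 doses. Lysates read by HTRF (665/620 nm); degradation % versus DMSO high control, DC50 from four-parameter fit, Dmax as maximal degradation.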

Row | Structure (SMILES) | DC50 [1] [nM] | DC50 [2] [nM] | Dmax [2] [%] | Dmax (%) H1975 # 28 DTC [1] [%]
1 | CCc1cc(Nc2ncc(Br)c(Nc3ccc4ccnnc4c3P(C)(C)=O)n2)c(OC)cc1N1CCC(N2CCN(C(=O)[C@@H]3CCN(c4cc(F)c([C@H]5CCC(=O)NC5=O)c(F)c4)C3)CC2)CC1 [Example 656, (R)-3-(4-((R)-3-(4-(1-(4-((5-bromo-4-((8-(dimethylphosphoryl)cinnolin-7-yl)amino)pyrimidin-2-yl)amino)-2-ethyl-5-methoxyphenyl)piperidin-4-yl)piperazine-1-carbonyl)pyrrolidin-1-yl)-2,6-difluorophenyl)piperidine-2,6-dione] | 1.66 | 5.22 | 83.6 | 83.91
2 | CCOc1cc(N2CCC(N3CCN(C(=O)[C@@H]4CCN(c5cc(F)c([C@H]6CCC(=O)NC6=O)c(F)c5)C4)CC3)CC2)c(C)cc1Nc1ncc(Br)c(Nc2ccc3c(=O)n(C)ncc3c2P(C)(C)=O)n1 [Example 529, (R)-3-(4-((R)-3-(4-(1-(4-((5-bromo-4-((5-(dimethylphosphoryl)-2-methyl-1-oxo-1,2-dihydrophthalazin-6-yl)amino)pyrimidin-2-yl)amino)-5-ethoxy-2-methylphenyl)piperidin-4-yl)piperazine-1-carbonyl)pyrrolidin-1-yl)-2,6-difluorophenyl)piperidine-2,6-dione] | 1.03 | 5.8 | 91.9 | 85.06
3 | CCOc1cc(N2CCC(N3CCN(CCc4c(F)ccc5c4oc(=O)n5C4CCC(=O)NC4=O)CC3)CC2)c(CC)cc1Nc1ncc(Br)c(Nc2ccc3nc(CC)ccc3c2P(C)(C)=O)n1 (stereo not shown) [Example 471, 3-(7-(2-(4-(1-(4-((5-bromo-4-((5-(dimethylphosphoryl)-2-ethylquinolin-6-yl)amino)pyrimidin-2-yl)amino)-5-ethoxy-2-ethylphenyl)piperidin-4-yl)piperazin-1-yl)ethyl)-6-fluoro-2-oxobenzo[d]oxazol-3(2H)-yl)piperidine-2_6-dione] | 1.98 | 36 | 83.9 | 73.66
4 | CCOc1cc(N2CCC(N3CCN(CCc4cc(Cl)cc5c4oc(=O)n5C4CCC(=O)NC4=O)CC3)CC2)c(CC)cc1Nc1ncc(Br)c(Nc2ccc3c(=O)n(CC)ncc3c2P(C)(C)=O)n1 (stereo not shown) [Example 599, 3-(7-(2-(4-(1-(4-((5-bromo-4-((5-(dimethylphosphoryl)-2-ethyl-1-oxo-1,2-dihydrophthalazin-6-yl)amino)pyrimidin-2-yl)amino)-5-ethoxy-2-ethylphenyl)piperidin-4-yl)piperazin-1-yl)ethyl)-5-chloro-2-oxobenzo[d]oxazol-3(2H)-yl)piperidine-2,6-dione] | 1.91 | 25 | 73.9 | 80.53
5 | CCc1ccc2c(P(C)(C)=O)c(Nc3nc(Nc4cc(C)c(N5CCC(N6CCN(CCc7ccc8c(c7)oc(=O)n8C7CCC(=O)NC7=O)CC6)CC5)cc4OC4CC4)ncc3Br)ccc2n1 (stereo not shown) [Example 568, 3-(6-(2-(4-(1-(4-((5-bromo-4-((5-(dimethylphosphoryl)-2-ethylquinolin-6-yl)amino)pyrimidin-2-yl)amino)-5-cyclopropoxy-2-methylphenyl)piperidin-4-yl)piperazin-1-yl)ethyl)-2-oxobenzo[d]oxazol-3(2H)-yl)piperidine-2,6-dione] | 2.38 | 10.4 | 87 | 91.62
6 | CCc1cc(Nc2ncc(Br)c(Nc3ccc4nc(C)sc4c3P(C)(C)=O)n2)c(OC)cc1N1CCC(N2CCN(CCc3cc(F)c(C4CCC(=O)NC4=O)c(F)c3)CC2)CC1 (stereo not shown) [Example 666, 3-(4-(2-(4-(1-(4-((5-bromo-4-((7-(dimethylphosphoryl)-2-methylbenzo[d]thiazol-6-yl)amino)pyrimidin-2-yl)amino)-2-ethyl-5-methoxyphenyl)piperidin-4-yl)piperazin-1-yl)ethyl)-2,6-difluorophenyl)piperidine-2,6-dione] | 2.4 | 11.1 | 93.2 | 86.11

Stronger by DC50 [1], values ahead:

Row | DC50 [1] [nM] | DC50 [2] [nM] | Dmax [2] [%] | Structure (SMILES) | Dmax (%) H1975 # 28 DTC [1] [%]
7 | 0.653 | 5.87 |  | CCc1ccc2c(P(C)(C)=O)c(Nc3nc(Nc4cc(CC)c(N5CCC(N6CCN(CCc7cc(F)c([C@H]8CCC(=O)NC8=O)c(F)c7)CC6)CC5)cc4OC)ncc3Cl)ccc2n1 [Example 744, (R)-3-(4-(2-(4-(1-(4-((5-chloro-4-((5-(dimethylphosphoryl)-2-ethylquinolin-6-yl)amino)pyrimidin-2-yl)amino)-2-ethyl-5-methoxyphenyl)piperidin-4-yl)piperazin-1-yl)ethyl)-2,6-difluorophenyl)piperidine-2,6-dione] | 84.24
8 | 0.763 | 3.89 | 93.1 | CCc1cc(Nc2ncc(Br)c(Nc3cc(F)c4nc(C)ccc4c3P(C)(C)=O)n2)c(OC)cc1N1CCC(N2CCN(CCc3cc(F)c([C@H]4CCC(=O)NC4=O)c(F)c3)CC2)CC1 [Example 510, (R)-3-(4-(2-(4-(1-(4-((5-bromo-4-((5-(dimethylphosphoryl)-8-fluoro-2-methylquinolin-6-yl)amino)pyrimidin-2-yl)amino)-2-ethyl-5-methoxyphenyl)piperidin-4-yl)piperazin-1-yl)ethyl)-2,6-difluorophenyl)piperidine-2,6-dione] | 67.2
9 | 0.666 | 7.79 | 96.1 | CCOc1cc(N2CCC(N3CCN(CCc4cccc5c4C(C)(C)C(=O)N5C4CCC(=O)NC4=O)[C@H](CO)C3)CC2)c(CC)cc1Nc1ncc(Br)c(Nc2ccc3c(=O)n(CC)ncc3c2P(C)(C)=O)n1 (stereo partly drawn) [Example 641, 3-(4-(2-((S)-4-(1-(4-((5-bromo-4-((5-(dimethylphosphoryl)-2-ethyl-1-oxo-1,2-dihydrophthalazin-6-yl)amino)pyrimidin-2-yl)amino)-5-ethoxy-2-ethylphenyl)piperidin-4-yl)-2-(hydroxymethyl)piperazin-1-yl)ethyl)-3,3-dimethyl-2-oxoindolin-1-yl)piperidine-2,6-dione] | 76.33
10 | 0.695 | 2.5 | 96.2 | CCc1ccc2c(P(C)(C)=O)c(Nc3nc(Nc4cc(CC)c(N5CCC(N6CCN(CCc7cccc8c7n(C)c(=O)n8C7CCC(=O)NC7=O)CC6)CC5)cc4OC4CC4)ncc3Br)ccc2n1 (stereo not shown) [Example 585, 3-(4-(2-(4-(1-(4-((5-bromo-4-((5-(dimethylphosphoryl)-2-ethylquinolin-6-yl)amino)pyrimidin-2-yl)amino)-5-cyclopropoxy-2-ethylphenyl)piperidin-4-yl)piperazin-1-yl)ethyl)-3-methyl-2-oxo-2,3-dihydro-1H-benzo[d]imidazol-1-yl)piperidine-2,6-dione] | 79.08
11 | 0.965 | 7.66 | 89.5 | CCOc1cc(N2CCC(N3CCN(CCc4c(F)cc5c(oc(=O)n5C5CCC(=O)NC5=O)c4F)CC3)CC2)c(CC)cc1Nc1ncc(Br)c(Nc2ccc3c(=O)n(CC)ncc3c2P(C)(C)=O)n1 (stereo not shown) [Example 629, 3-(6-(2-(4-(1-(4-((5-bromo-4-((5-(dimethylphosphoryl)-2-ethyl-1-oxo-1,2-dihydrophthalazin-6-yl)amino)pyrimidin-2-yl)amino)-5-ethoxy-2-ethylphenyl)piperidin-4-yl)piperazin-1-yl)ethyl)-5,7-difluoro-2-oxobenzo[d]oxazol-3(2H)-yl)piperidine-2,6-dione] | 71.58
